IC50 data for 22 compounds are collected here from article PMC8623179, “Design and Microwave Synthesis of New (5Z) 5-Arylidene-2-thioxo-1,3-thiazolinidin-4-one and (5Z) 2-Amino-5-arylidene-1,3-thiazol-4(5H)-one as New Inhibitors of Protein Kinase DYRK1A” (Pharmaceuticals, 2021).

The structures appear in SMILES notation. Like-named read-outs stand apart in the source and are kept apart here.

The target in one experiment is T1, DYRK1A (Rattus norvegicus, UniProt Q63470).
T1 construct: GST; made in house; host or cells: Escherichia coli
The experiment can be described thus: DYRK1A kinase assay. The conditions noted are these: 15 μM ATP. The experiment is classed as biochemical. On the procedure:
(§1) The twenty-two (5Z) 5-arylidene-2-thioxo-1,3-thiazolidin-4-ones 3a–v and the twenty-four (5Z) 2-amino-5-arylidene-1,3-thiazolidin-4(5H)-ones 5a–x were evaluated against four different and representative in vitro kinase assays DYRK1A (dual specificity tyrosine phosphorylation regulated kinase), CK1 δ/e (caseine kinase 1), CDK5/p25 (cyclin dependant kinase), and GSK3 α/β (glycogen synthase kinase 3) to evaluate their inhibition potency. […] All the compounds were initially tested at a 10 μM concentration.
After 30-min incubation at 30 °C, the reaction was stopped by harvesting, using a FilterMate harvester (Packard), onto P81 phospho-cellulose papers (GE Healthcare, Chicago, IL, USA) which were washed in 1% phosphoric acid. Scintillation fluid was added and the radioactivity measured in a Packard counter. Blank values were subtracted and activities calculated as pmoles of phosphate incorporated for the 30-min incubation. The activities were expressed in % of the maximal activity, i.e., in the absence of inhibitors. Controls were performed with appropriate dilutions of DMSO. […]

The next experiment has as its target Casein kinase 1 (CK1δ/ε). The experiment can be described thus: CK1δ/ε kinase assay. The experiment is classed as biochemical, porcine. To be noted: 15 μM ATP, read-out: IC50 CK1. As to the method:
as §1
(§2) After 30-min incubation at 30 °C, the reaction was stopped by harvesting, using a FilterMate harvester (Packard), onto P81 phospho-cellulose papers (GE Healthcare, Chicago, IL, USA) which were washed in 1% phosphoric acid. Scintillation fluid was added and the radioactivity measured in a Packard counter. Blank values were subtracted and activities calculated as pmoles of phosphate incorporated for the 30-min incubation. The activities were expressed in % of the maximal activity, i.e., in the absence of inhibitors. Controls were performed with appropriate dilutions of DMSO.
Casein kinase 1 (CK1δ/ε) (porcine brain, native) was assayed with 0.67 µg of CKS peptide ([…]pSAYSITA), a CK1 specific substrate obtained from Millegen (Labege, France).

For the next experiment, the target named is T2, CDK5/p25 (Homo sapiens, UniProt Q00535).
T2 construct: made in house
The experiment can be described thus: CDK5/p25 kinase assay. To be noted: 15 μM ATP. The experiment is classed as biochemical. As to the method:
as §1, §2
CDK5/p25 (human, recombinant) was prepared as previously described. […] ATP (3000 Ci/mmol; 10 mCi/mL) in a final volume of 30 μL. After 30-min incubation at 30 °C, 25 μL aliquots of supernatant were spotted onto 2.5 × 3 cm pieces of Whatman P81 phospho-cellulose paper, and, 20 s later, the filters were washed five times (for at least 5 min each time) in a solution of 10 mL phosphoric acid/litter of water. The wet filters were counted in the presence of 1 mL ACS (Amersham, UK) scintillation fluid.

The target of the next experiment is GSK-3α/β. The experiment can be described thus: GSK-3α/β kinase assay. The experiment is classed as biochemical, porcine. To be noted: 15 μM ATP, read-out: IC50 GSK3α/β. On the procedure: as §1, §2
GSK-3α/β (porcine brain, native) was assayed, as described for CDK5/p25 but in Buffer A and using a GSK-3 specific substrate (GS-1: […]pEDEEE) (pS stands for phosphorylated serine). GS-1 was synthesized by Millegen (Labege, France).

T2 sequence (Q00535 whole entry): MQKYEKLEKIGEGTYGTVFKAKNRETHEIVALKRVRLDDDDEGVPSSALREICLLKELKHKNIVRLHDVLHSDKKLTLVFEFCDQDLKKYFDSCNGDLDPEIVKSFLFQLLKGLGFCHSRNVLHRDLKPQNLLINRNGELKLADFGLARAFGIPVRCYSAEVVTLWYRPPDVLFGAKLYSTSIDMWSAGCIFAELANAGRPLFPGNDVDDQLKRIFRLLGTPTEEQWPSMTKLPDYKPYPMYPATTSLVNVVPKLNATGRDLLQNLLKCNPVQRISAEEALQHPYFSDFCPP
T2 sequence (Q15078 99-307 partner limits assumed): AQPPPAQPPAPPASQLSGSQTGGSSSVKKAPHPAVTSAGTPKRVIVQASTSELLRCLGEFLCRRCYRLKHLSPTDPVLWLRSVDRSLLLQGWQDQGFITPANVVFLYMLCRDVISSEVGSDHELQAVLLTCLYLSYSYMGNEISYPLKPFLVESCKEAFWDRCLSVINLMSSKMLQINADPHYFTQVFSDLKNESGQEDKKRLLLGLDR

Consider `O=C1NC(=S)S/C1=C\c1ccc(O)cc1` [Compound 3e, (5Z)-5-(4-Hydroxybenzylidene)-2-thioxo-1,3-thiazolidin-4-one], for which the IC50 is 0.028 µM on DYRK1A (Table 4), > 10 µM on Casein kinase 1 (CK1δ/ε) (Table 4), > 10 µM against CDK5/p25 (Table 4) and > 10 µM on GSK-3α/β (Table 4).
As to `O=C1NC(=S)S/C1=C\c1cccc(-c2ccc3c(c2)OCO3)n1` [Compound 3h, (5Z)-5-{[6-(1,3-Benzodioxol-5-yl)pyridin-2-yl]methylene}-2-thioxo-1,3-thiazolidin-4-one], the IC50 on DYRK1A (Table 4) is 0.35 µM; at Casein kinase 1 (CK1δ/ε) (Table 4), > 10 µM; against CDK5/p25 (Table 4), > 10 µM; at GSK-3α/β (Table 4) it was 1.6 µM.
As to `O=C1NC(=S)S/C1=C\c1ccc2c(c1)CCCO2` [Compound 3m, (5Z)-5-(Chroman-6-yl)methylene-2-thioxo-1,3-thiazolidin-4-one], the IC50 against DYRK1A (Table 4) is 6.5 µM; on Casein kinase 1 (CK1δ/ε) (Table 4), > 10 µM; at CDK5/p25 (Table 4), > 10 µM; at GSK-3α/β (Table 4), > 10 µM.
`O=C1NC(=S)S/C1=C\c1ccc2c(c1)OCCCO2` [Compound 3n, (5Z)-5-(3,4-Dihydro-2H-1,5-benzodioxepine-7-yl)methylene-2-thioxo-1,3-thiazolidin-4-one]: the IC50 against DYRK1A (Table 4), on Casein kinase 1 (CK1δ/ε) (Table 4), against CDK5/p25 (Table 4) and at GSK-3α/β (Table 4) was > 10 µM throughout.
For the compound `NN1C(=O)/C(=C/c2ccc3c(c2)OCO3)SC1=S` [Compound 3o, (5Z)-3-Amino-5-benzo[1,3]dioxol-5-ylmethylene-2-thioxo-thiazolidin-4-one], the IC50 against DYRK1A (Table 4), on Casein kinase 1 (CK1δ/ε) (Table 4), against CDK5/p25 (Table 4) and at GSK-3α/β (Table 4) was > 10 µM throughout.
Consider `O=C(NN1C(=O)/C(=C/c2ccc3c(c2)OCO3)SC1=S)c1ccccc1` [Compound 3p, (5Z)-N-(5-Benzo[1,3]dioxol-5-ylmethylene-4-oxo-2-thioxo-thiazolidin-3-yl)-benzamide], for which the IC50 against DYRK1A (Table 4), on Casein kinase 1 (CK1δ/ε) (Table 4), on CDK5/p25 (Table 4) and at GSK-3α/β (Table 4) was > 10 µM in each case.
On to `O=C(Cc1ccccc1)NN1C(=O)/C(=C/c2ccc3c(c2)OCO3)SC1=S` [Compound 3q, (5Z)-N-(5-Benzo[1,3]dioxol-5-ylmethylene-4-oxo-2-thioxo-thiazolidin-3-yl)-2-phenyl-acetamide], for which the IC50 against DYRK1A (Table 4), on Casein kinase 1 (CK1δ/ε) (Table 4), against CDK5/p25 (Table 4) and on GSK-3α/β (Table 4) was > 10 µM in each case.
On to `O=C(CCc1ccccc1)NN1C(=O)/C(=C/c2ccc3c(c2)OCO3)SC1=S` [Compound 3r, (5Z)-N-(5-Benzo[1,3]dioxol-5-ylmethylene-4-oxo-2-thioxo-thiazolidin-3-yl)-3-phenyl-propionamide], for which the IC50 against DYRK1A (Table 4), on Casein kinase 1 (CK1δ/ε) (Table 4), on CDK5/p25 (Table 4) and at GSK-3α/β (Table 4) was > 10 µM each time.
On to `COc1ccc(C(=O)NN2C(=O)/C(=C/c3ccc4c(c3)OCO4)SC2=S)cc1` [Compound 3s], for which the IC50 against DYRK1A (Table 4), on Casein kinase 1 (CK1δ/ε) (Table 4), at CDK5/p25 (Table 4) and on GSK-3α/β (Table 4) was > 10 µM in each case.
Regarding `O=C1/C(=C/c2ccc3c(c2)OCO3)SC(=S)N1NS(=O)(=O)c1ccccc1` [Compound 3t, (5Z)-N-(5-Benzo[1,3]dioxol-5-ylmethylene-4-oxo-2-thioxo-thiazolidin-3-yl)-benzenesulfonamide], the IC50 against DYRK1A (Table 4), at Casein kinase 1 (CK1δ/ε) (Table 4), against CDK5/p25 (Table 4) and at GSK-3α/β (Table 4) was > 10 µM each time.
Consider `O=C(O)CN1C(=O)/C(=C/c2ccc3c(c2)OCO3)SC1=S` [Compound 3u, (5Z)-(5-Benzo[1,3]dioxol-5-ylmethylene-4-oxo-2-thioxo-thiazolidin-3-yl)-acetic acid], for which the IC50 was 0.16 µM at DYRK1A (Table 4), > 10 µM at Casein kinase 1 (CK1δ/ε) (Table 4), > 10 µM against CDK5/p25 (Table 4) and > 10 µM on GSK-3α/β (Table 4).
In the case of `O=C(O)CCN1C(=O)/C(=C/c2ccc3c(c2)OCO3)SC1=S` [Compound 3v, (5Z)-3-(5-Benzo[1,3]dioxol-5-ylmethylene-4-oxo-2-thioxo-thiazolidin-3-yl)-propionic acid], the IC50 is 0.7 µM against DYRK1A (Table 4), > 10 µM at Casein kinase 1 (CK1δ/ε) (Table 4), > 10 µM against CDK5/p25 (Table 4) and > 10 µM on GSK-3α/β (Table 4).
In the case of `O=C1N=C(N2CCOCC2)S/C1=C\c1ccc2c(c1)OCO2` [Compound 5a, (5Z)-5-(1,3-Benzodioxol-5-ylmethylene)-2-(morpholin-1-yl)-1,3-thiazol-4(5H)-one], the IC50 on DYRK1A (Table 5) is 0.63 µM; on Casein kinase 1 (CK1δ/ε) (Table 5) it was > 10 µM; against CDK5/p25 (Table 5), > 10 µM; at GSK-3α/β (Table 5), 7.4 µM.
In the case of `COc1ccc(/C=C2\SC(N3CCOCC3)=NC2=O)cc1OC` [Compound 5b, (5Z)-5-(3,4-Dimethoxybenzylidene)-2-(morpholin-1-yl)-1,3-thiazol-4(5H)-one], the IC50 against DYRK1A (Table 5), on Casein kinase 1 (CK1δ/ε) (Table 5), against CDK5/p25 (Table 5) and on GSK-3α/β (Table 5) was > 10 µM throughout.
Take `O=C1N=C(N2CCNCC2)S/C1=C\c1ccc2c(c1)OCO2` [Compound 5e, (5Z)-5-(1,3-Benzodioxol-5-ylmethylene)-2-(piperazin-1-yl)-1,3-thiazol-4(5H)-one]: the IC50 against DYRK1A (Table 5) was 1.8 µM; at Casein kinase 1 (CK1δ/ε) (Table 5), > 10 µM; against CDK5/p25 (Table 5) it was > 10 µM; on GSK-3α/β (Table 5), ≤ 8.8 µM.
For `CN1CCN(C2=NC(=O)/C(=C/c3ccc4c(c3)OCO4)S2)CC1` [Compound 5f, (5Z)-5-(1,3-Benzodioxol-5-ylmethylene)-2-(4-N-methylpiperazin-1-yl)-1,3-thiazol-4(5H)-one], the IC50 is 2.3 µM against DYRK1A (Table 5), > 10 µM at Casein kinase 1 (CK1δ/ε) (Table 5), > 10 µM at CDK5/p25 (Table 5) and > 10 µM on GSK-3α/β (Table 5).
As to `O=C1N=C(N2CCSCC2)S/C1=C\c1ccc2c(c1)OCO2` [Compound 5g, (5Z)-5-(1,3-Benzodioxol-5-ylmethylene)-2-(thiomorpholin-1-yl)-1,3-thiazol-4(5H)-one], the IC50 at DYRK1A (Table 5) was 0.4 µM; at Casein kinase 1 (CK1δ/ε) (Table 5), > 10 µM; on CDK5/p25 (Table 5), > 10 µM; at GSK-3α/β (Table 5) it was ≥ 10 µM.
For the compound `COc1ccc(/C=C2\SC(N3CCSCC3)=NC2=O)cc1OC` [Compound 5h, (5Z)-5-(3,4-Dimethoxybenzylidene)-2-(thiomorpholin-1-yl)-1,3-thiazol-4(5H)-one], the IC50 against DYRK1A (Table 5), on Casein kinase 1 (CK1δ/ε) (Table 5), against CDK5/p25 (Table 5) and at GSK-3α/β (Table 5) was > 10 µM in each case.
On to `O=C1N=C(N2CCCCC2)S/C1=C\c1ccc2c(c1)OCO2` [Compound 5i, (5Z)-5-(1,3-Benzodioxol-5-ylmethylene)-2-(piperidin-1-yl)-1,3-thiazol-4(5H)-one], for which the IC50 at DYRK1A (Table 5) was 0.053 µM; on Casein kinase 1 (CK1δ/ε) (Table 5), > 10 µM; on CDK5/p25 (Table 5), > 10 µM; at GSK-3α/β (Table 5), 7.4 µM.
Regarding `O=C1N=C(N2CCN(Cc3ccc4c(c3)OCO4)CC2)S/C1=C\c1ccc2c(c1)OCO2` [Compound 5j, (5Z)-5-(1,3-Benzodioxol-5-ylmethylene)-2-[1-(1,3-benzodioxol-5-ylmethyl)piperazin-1-yl]-1,3-thiazol-4(5H)-one], the IC50 against DYRK1A (Table 5) is ≥ 10 µM; at Casein kinase 1 (CK1δ/ε) (Table 5), > 10 µM; at CDK5/p25 (Table 5), > 10 µM; at GSK-3α/β (Table 5), > 10 µM.
For the compound `O=C1N=C(N2CCN(c3ccc(F)cc3)CC2)S/C1=C\c1ccc2c(c1)OCO2` [Compound 5k, (5Z)-5-(1,3-Benzodioxol-5-ylmethylene)-2-[1-(4-fluorophenyl)piperazin-1-yl]-1,3-thiazol-4(5H)-one], the IC50 was 1.6 µM on DYRK1A (Table 5), > 10 µM on Casein kinase 1 (CK1δ/ε) (Table 5), > 10 µM against CDK5/p25 (Table 5) and > 10 µM on GSK-3α/β (Table 5).
Take `O=C1N=C(N2CCN(c3ncccn3)CC2)S/C1=C\c1ccc2c(c1)OCO2` [Compound 5l, (5Z)-5-(1,3-Benzodioxol-5-ylmethylene)-2-[4-(pyrimidin-2-yl)piperazin-1-yl]-1,3-thiazol-4(5H)-one]: the IC50 against DYRK1A (Table 5) was 1.8 µM; at Casein kinase 1 (CK1δ/ε) (Table 5), > 10 µM; on CDK5/p25 (Table 5), > 10 µM; on GSK-3α/β (Table 5), > 10 µM.
